Measurements as given in patent publication US11446267B2, “Nanoparticle compositions, methods of fabrication, and use for drug delivery” (DIGNITY HEALTH, priority 2017, dated 2022).

Key:
[1] = target: T1, RARβ (Homo sapiens, UniProt P10826); conditions: cited from earlier work
T1 sequence (P10826 1-455): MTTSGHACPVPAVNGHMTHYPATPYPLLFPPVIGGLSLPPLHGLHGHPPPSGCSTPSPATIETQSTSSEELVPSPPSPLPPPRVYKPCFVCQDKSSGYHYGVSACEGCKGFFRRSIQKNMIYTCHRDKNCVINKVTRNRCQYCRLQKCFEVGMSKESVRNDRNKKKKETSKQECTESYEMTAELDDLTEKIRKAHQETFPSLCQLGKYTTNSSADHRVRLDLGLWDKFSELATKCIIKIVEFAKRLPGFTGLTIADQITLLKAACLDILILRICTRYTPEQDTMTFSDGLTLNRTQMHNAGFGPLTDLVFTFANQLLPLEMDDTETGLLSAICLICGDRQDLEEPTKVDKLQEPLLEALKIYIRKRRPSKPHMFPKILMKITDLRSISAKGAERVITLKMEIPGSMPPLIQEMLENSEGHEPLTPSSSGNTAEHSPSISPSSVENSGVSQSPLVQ

[2] = system: primary motor neurons; conditions: oxidative injury and excitotoxicity; cited from earlier work
[3] = target: T2, RARα (Homo sapiens, UniProt P10276); conditions: cited from earlier work
T2 sequence (P10276 1-462): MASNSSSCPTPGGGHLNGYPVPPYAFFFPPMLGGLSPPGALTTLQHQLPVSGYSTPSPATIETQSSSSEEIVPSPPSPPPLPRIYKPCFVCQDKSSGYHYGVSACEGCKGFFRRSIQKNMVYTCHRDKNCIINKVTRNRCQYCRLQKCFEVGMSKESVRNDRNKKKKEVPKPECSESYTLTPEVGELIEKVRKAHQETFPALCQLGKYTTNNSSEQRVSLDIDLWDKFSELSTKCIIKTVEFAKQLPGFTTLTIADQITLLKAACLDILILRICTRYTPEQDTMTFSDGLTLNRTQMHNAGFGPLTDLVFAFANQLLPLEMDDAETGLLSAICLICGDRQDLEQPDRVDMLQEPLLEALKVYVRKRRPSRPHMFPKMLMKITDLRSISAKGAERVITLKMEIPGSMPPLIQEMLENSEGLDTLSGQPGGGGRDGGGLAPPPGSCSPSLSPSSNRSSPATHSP

[4] = in vivo; cited from earlier work
[5] = cited from earlier work
[6] = system: MAPK signaling; assay: MAPK signaling after direct injection into the striatum; format: in vivo; conditions: injected directly into the striatum of healthy mice
[7] = system: RXRs; conditions: cited from earlier work
[8] = system: ALS patients; conditions: subset of ALS patients, phase III study; cited from earlier work
[9] = chronic administration; cited from earlier work

COc1ccc(-c2ccc3cc(C(=O)O)ccc3c2)cc1C12CC3CC(CC(C3)C1)C2 [Adapalene]
AC50 [1]: 2.2 nM
cell death [2]: reduced cell death
AC50 [3]: 9.2 nM
clearance from the plasma [4]: rapidly cleared from the plasma
solubility in water [5]: less than 1 μg/ml
activation of MAPK signaling [6]: equivalently activated MAPK signaling
interaction with RXRs [7]: does not interact

CC1=NN(c2ccccc2)C(=O)C1 [Edaravone]
disease progression [8]: reduce disease progression

C=C(c1ccc(C(=O)O)cc1)c1cc2c(cc1C)C(C)(C)CCC2(C)C [bexarotene]
motor impairments, lifespan, neuroprotection [9]: reduced motor impairments, increased lifespan and was neuroprotective
